Laboratory results taken from patent US7964531B2, “3-phenoxy-4-pyridazinol derivatives and herbicidal composition containing the same” (Mitsui Chemicals Agro, Inc., priority 2001, dated 2011).

Tests used:
Type in all cases: in vivo
Details in all cases: wettable powder applied 3 days after transplanting, judged after 25 days
[1] = tested on: Scirpus joncoides; assay: Test Example 1: herbicidal effects, paddy-field pot test
How it was run: (§1)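 Paddy-soil pots sown with weed seeds, germinated Cyperus serotinus tubers and 2.2-leaf rice transplants, kept flooded in a greenhouse. Wettable powder diluted in water applied at set dosage 3 days after transplanting. Weed control and rice injury scored 25 days later on a 0-5 growth-inhibition scale.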

[2] = tested on: annual broad-leaved weeds (Lindernia spp., Rotala indica); assay: as above
How it was run: as §1

[3] = tested on: Cyperus serotinus; assay: as above
How it was run: as §1

[4] = tested on: barnyardgrass (Echinochloa oryzicola Vasing.); assay: as above
How it was run: as §1

[5] = tested on: transplanted paddy-field rice; assay: Test Example 1: crop injury against transplanted paddy-field rice
How it was run: as §1

Structure (SMILES) | Herbicidal effects Scirpus joncoides ([1]; chemical dosage 10 g/a) | Herbicidal effects Scirpus joncoides ([1]; chemical dosage 20 g/a) | Herbicidal effects Broad leaf ([2]; chemical dosage 10 g/a) | Herbicidal effects Broad leaf ([2]; chemical dosage 20 g/a) | Herbicidal effects Cyperus serotinus ([3]; chemical dosage 10 g/a) | Herbicidal effects Cyperus serotinus ([3]; chemical dosage 20 g/a) | Herbicidal effects Barnyard grass ([4]; chemical dosage 10 g/a) | Herbicidal effects Barnyard grass ([4]; chemical dosage 20 g/a) | Crop injury against transplanted rice ([5]; chemical dosage 10 g/a) | Crop injury against transplanted rice ([5]; chemical dosage 20 g/a) | Herbicidal effects Scirpus joncoides ([1]; chemical dosage 12.5 g/a) | Herbicidal effects Scirpus joncoides ([1]; chemical dosage 25 g/a) | Herbicidal effects Broad leaf ([2]; chemical dosage 12.5 g/a) | Herbicidal effects Broad leaf ([2]; chemical dosage 25 g/a) | Herbicidal effects Cyperus serotinus ([3]; chemical dosage 12.5 g/a) | Herbicidal effects Cyperus serotinus ([3]; chemical dosage 25 g/a) | Herbicidal effects Barnyard grass ([4]; chemical dosage 12.5 g/a) | Herbicidal effects Barnyard grass ([4]; chemical dosage 25 g/a) | Crop injury against transplanted rice ([5]; chemical dosage 12.5 g/a) | Crop injury against transplanted rice ([5]; chemical dosage 25 g/a)
Oc1cc(Cl)nnc1Oc1c(C2CC2)ccc2ccoc12 [Example 311] | 4 (Growth inhibition rate; 71 to 90%) | 5 (Growth inhibition rate; 91 to 100%) | 5 (Growth inhibition rate; 91 to 100%) | 5 (Growth inhibition rate; 91 to 100%) | 4 (Growth inhibition rate; 71 to 90%) | 5 (Growth inhibition rate; 91 to 100%) | 1 (Growth inhibition rate; 11 to 30%) | 3 (Growth inhibition rate; 51 to 70%) | 0 (Growth inhibition rate; 0 to 10%) | 0 (Growth inhibition rate; 0 to 10%) | – | – | – | – | – | – | – | – | – | –
Cc1cc(C)c(Oc2nnc(Cl)cc2O)c(C2CC2)c1 [Example 318] | 5 (Growth inhibition rate; 91 to 100%) | 5 (Growth inhibition rate; 91 to 100%) | 5 (Growth inhibition rate; 91 to 100%) | 5 (Growth inhibition rate; 91 to 100%) | 5 (Growth inhibition rate; 91 to 100%) | 5 (Growth inhibition rate; 91 to 100%) | 0 (Growth inhibition rate; 0 to 10%) | 1 (Growth inhibition rate; 11 to 30%) | 0 (Growth inhibition rate; 0 to 10%) | 0 (Growth inhibition rate; 0 to 10%) | – | – | – | – | – | – | – | – | – | –
Oc1cc(Cl)nnc1Oc1c(C2CC2)cccc1C1CC1 [Example 275] | 5 (Growth inhibition rate; 91 to 100%) | 5 (Growth inhibition rate; 91 to 100%) | 5 (Growth inhibition rate; 91 to 100%) | 5 (Growth inhibition rate; 91 to 100%) | 5 (Growth inhibition rate; 91 to 100%) | 5 (Growth inhibition rate; 91 to 100%) | 4 (Growth inhibition rate; 71 to 90%) | 4 (Growth inhibition rate; 71 to 90%) | 1 (Growth inhibition rate; 11 to 30%) | 3 (Growth inhibition rate; 51 to 70%) | – | – | – | – | – | – | – | – | – | –
Cc1cc(C)c(Br)c(Oc2nnc(Cl)cc2O)c1 [Example 285] | 4 (Growth inhibition rate; 71 to 90%) | 5 (Growth inhibition rate; 91 to 100%) | 5 (Growth inhibition rate; 91 to 100%) | 5 (Growth inhibition rate; 91 to 100%) | 2 (Growth inhibition rate; 31 to 50%) | 3 (Growth inhibition rate; 51 to 70%) | 0 (Growth inhibition rate; 0 to 10%) | 0 (Growth inhibition rate; 0 to 10%) | 0 (Growth inhibition rate; 0 to 10%) | 0 (Growth inhibition rate; 0 to 10%) | – | – | – | – | – | – | – | – | – | –
Cc1ccccc1Oc1nnc(Cl)cc1OC(=O)c1ccccc1 [Example 328] | 3 (Growth inhibition rate; 51 to 70%) | 5 (Growth inhibition rate; 91 to 100%) | 3 (Growth inhibition rate; 51 to 70%) | 5 (Growth inhibition rate; 91 to 100%) | 5 (Growth inhibition rate; 91 to 100%) | 5 (Growth inhibition rate; 91 to 100%) | 3 (Growth inhibition rate; 51 to 70%) | 4 (Growth inhibition rate; 71 to 90%) | 0 (Growth inhibition rate; 0 to 10%) | 0 (Growth inhibition rate; 0 to 10%) | – | – | – | – | – | – | – | – | – | –
CCCc1ccccc1Oc1nnc(Cl)cc1O [Example 56] | – | – | – | – | – | – | – | – | – | – | 2 (Growth inhibition rate; 31 to 50%) | 3 (Growth inhibition rate; 51 to 70%) | 4 (Growth inhibition rate; 71 to 90%) | 5 (Growth inhibition rate; 91 to 100%) | 4 (Growth inhibition rate; 71 to 90%) | 4 (Growth inhibition rate; 71 to 90%) | 0 (Growth inhibition rate; 0 to 10%) | 0 (Growth inhibition rate; 0 to 10%) | 0 (Growth inhibition rate; 0 to 10%) | 0 (Growth inhibition rate; 0 to 10%)
CCc1cccc(CC)c1Oc1nnc(Cl)cc1O [Example 268] | – | – | – | – | – | – | – | – | – | – | 5 (Growth inhibition rate; 91 to 100%) | 5 (Growth inhibition rate; 91 to 100%) | 5 (Growth inhibition rate; 91 to 100%) | 5 (Growth inhibition rate; 91 to 100%) | 5 (Growth inhibition rate; 91 to 100%) | 5 (Growth inhibition rate; 91 to 100%) | 0 (Growth inhibition rate; 0 to 10%) | 1 (Growth inhibition rate; 11 to 30%) | 1 (Growth inhibition rate; 11 to 30%) | 1 (Growth inhibition rate; 11 to 30%)
C=CCc1ccccc1Oc1nnc(Cl)cc1OC [Comparative compound, 3-(2-allylphenoxy)-6-chloro-4-methoxypyridazine, reference compound] | – | – | – | – | – | – | – | – | – | – | – | 0 (Growth inhibition rate; 0 to 10%) | – | 1 (Growth inhibition rate; 11 to 30%) | – | 0 (Growth inhibition rate; 0 to 10%) | – | 0 (Growth inhibition rate; 0 to 10%) | – | 0 (Growth inhibition rate; 0 to 10%)
CS(=O)(=O)Oc1cc(Cl)nnc1Oc1ccccc1C1CC1 [Example 357] | 5 (Growth inhibition rate; 91 to 100%) | 5 (Growth inhibition rate; 91 to 100%) | 5 (Growth inhibition rate; 91 to 100%) | 5 (Growth inhibition rate; 91 to 100%) | 5 (Growth inhibition rate; 91 to 100%) | 5 (Growth inhibition rate; 91 to 100%) | 2 (Growth inhibition rate; 31 to 50%) | 3 (Growth inhibition rate; 51 to 70%) | 0 (Growth inhibition rate; 0 to 10%) | 0 (Growth inhibition rate; 0 to 10%) | – | – | – | – | – | – | – | – | – | –
O=[N+]([O-])c1ccc(S(=O)(=O)Oc2cc(Cl)nnc2Oc2ccccc2C2CC2)cc1 [Example 394] | 4 (Growth inhibition rate; 71 to 90%) | 5 (Growth inhibition rate; 91 to 100%) | 5 (Growth inhibition rate; 91 to 100%) | 5 (Growth inhibition rate; 91 to 100%) | 5 (Growth inhibition rate; 91 to 100%) | 5 (Growth inhibition rate; 91 to 100%) | 2 (Growth inhibition rate; 31 to 50%) | 3 (Growth inhibition rate; 51 to 70%) | 0 (Growth inhibition rate; 0 to 10%) | 0 (Growth inhibition rate; 0 to 10%) | – | – | – | – | – | – | – | – | – | –
CC(C)c1cccc(C2CC2)c1Oc1nnc(Cl)cc1O [Example 272] | 4 (Growth inhibition rate; 71 to 90%) | 5 (Growth inhibition rate; 91 to 100%) | 5 (Growth inhibition rate; 91 to 100%) | 5 (Growth inhibition rate; 91 to 100%) | 4 (Growth inhibition rate; 71 to 90%) | 4 (Growth inhibition rate; 71 to 90%) | 0 (Growth inhibition rate; 0 to 10%) | 0 (Growth inhibition rate; 0 to 10%) | 0 (Growth inhibition rate; 0 to 10%) | 0 (Growth inhibition rate; 0 to 10%) | – | – | – | – | – | – | – | – | – | –
Oc1cc(Cl)nnc1Oc1cccc2ccccc12 [Example 180] | – | – | – | – | – | – | – | – | – | – | 2 (Growth inhibition rate; 31 to 50%) | 3 (Growth inhibition rate; 51 to 70%) | 5 (Growth inhibition rate; 91 to 100%) | 5 (Growth inhibition rate; 91 to 100%) | 5 (Growth inhibition rate; 91 to 100%) | 5 (Growth inhibition rate; 91 to 100%) | 0 (Growth inhibition rate; 0 to 10%) | 0 (Growth inhibition rate; 0 to 10%) | 0 (Growth inhibition rate; 0 to 10%) | 0 (Growth inhibition rate; 0 to 10%)
Cc1cccc(C(C)(C)C)c1Oc1nnc(Cl)cc1O [Example 22] | – | – | – | – | – | – | – | – | – | – | 2 (Growth inhibition rate; 31 to 50%) | 4 (Growth inhibition rate; 71 to 90%) | 5 (Growth inhibition rate; 91 to 100%) | 5 (Growth inhibition rate; 91 to 100%) | 3 (Growth inhibition rate; 51 to 70%) | 4 (Growth inhibition rate; 71 to 90%) | 1 (Growth inhibition rate; 11 to 30%) | 2 (Growth inhibition rate; 31 to 50%) | 1 (Growth inhibition rate; 11 to 30%) | 2 (Growth inhibition rate; 31 to 50%)
